Laboratory results: paper PMC12386811, “Novel Carbazole–Thiazole Conjugates: Synthesis and Biophysical Characterization” (International Journal of Molecular Sciences, 2025)

Experiments:
mushroom tyrosinase = mushroom tyrosinase (Agaricus bisporus, UniProt C7FF04); assay: Kinetic analysis of the inhibition of tyrosinase (Lineweaver–Burk plots); assay type: biochemical; details: inhibitor 0.05 and 0.1 mM, L-DOPA 0.1–0.25 mM
Protocol: Based on the Lineweaver–Burk double reciprocal plots, the inhibition mode for the three investigated compounds was established as mixed-type inhibition, i.e., the type of enzyme inhibition in which the inhibitor may bind to the enzyme regardless of whether or not the enzyme has already bound the substrate. […].
A series of experiments were performed to determine the inhibition kinetics of tested carbazoles by following the already reported method. The inhibitor concentrations for tested carbazoles were 0.05 and 0.1 mM. Substrate L-DOPA concentration was between 0.1 and 0.25 mM in all kinetic studies. Maximal initial velocity was determined from the initial linear portion of absorbance up to ten minutes after addition of enzyme. The inhibition type of the enzyme, Michaelis constant (Km) and maximal velicity (Vmax), were determined by Lineweaver–Burk plots of inverse of velocities (1/V) versus inverse of substrate concentration 1/[L-DOPA] mM^−1.

[1] = Thermogravimetric analysis (thermal stability); assay type: physicochemical; details: TGA, 15 °C/min under nitrogen
Protocol: Thermogravimetric analysis (TGA) allowed obtaining of thermal stability results for the presented compounds (K1–K3). For all derivatives, the temperature of 5% (T5) and 10% (T10) mass loss as well as the temperature of complete decomposition (Tmax) were determined. Referring to the T5 for K1–K3, we can see that it is in the range of 222 °C to 244 °C. Such high values indicate the high durability of these compounds. Moreover, the functional group in the substituent has a negligible effect on thermal stability. The best thermal properties are those of K3 compound, containing the 4-nitrophenyl group. In the case of replacing this group with benzonitrile (K2), we observe a slight decrease in T5 (by 13 °C), T10 (by 19 °C), and only one stage of Tmax degradation. On the other hand, compound K1 has the lowest T5 (222 °C). It is most likely due to the aliphatic nature of the substituent. Comparing the discussed derivatives (K1–K3) to their analogs described in the literature, we can see a significant similarity in thermal properties, despite different functional groups in the substituents.
Thermogravimetric analysis was performed on Perkin Elmer Thermogravimetric Analyzer Pyris 1 TGA at a heating rate of 15 °C/min under nitrogen. The electronic spectra were measured on a ThermoScientific Evolution 220 UV/Vis spectrometer. Photoluminescence emission spectra were acquired using Hitachi Fluorescence Spectrophotometer F-7100 [19].

[2] = Dissolution in solvents for absorption/emission studies; assay type: physicochemical; details: non-polar toluene
Protocol: Absorption and emission studies were carried out for investigated compounds K1–K3 using solvents of different polarities. The presented molecules differ in the substituent in thiazole ring. To check the influence of the substituent in the discussed molecules, the tests were carried out on solutions with a concentration of 2.5 × 10^−5 mol/L. In the first step, absorption maxima (λabs) were determined. The measured data are shown in Table 3, Figure 3, Figures S1 and S2.
Each of the derivatives has at least two bands registered in the absorption spectra. The main bands between 320 and 370 nm can be attributed to the π→π* transition. The next one is the band […] 300 nm. In the case of the presented molecules, the solvatochromic effect associated with the polarity of the solvent is not observed in the absorption spectra. The same behavior is shown by the analogs described in the literature. In the next step, the emission maxima were determined. For the K3 molecule, spectra were recorded only in chloroform, ethanol, and DMSO. […] For the rest, λem was successfully determined in several solvents. By analyzing the fluorescence spectra, the influence of the polarity of the solvent on the obtained results can be observed. […] Moreover, the Stokes shift increases from non-polar to polar solvents (K3 30 nm, K1 69 nm, K2 70 nm). […]

mushroom tyrosinase, sequence (C7FF04 1-392): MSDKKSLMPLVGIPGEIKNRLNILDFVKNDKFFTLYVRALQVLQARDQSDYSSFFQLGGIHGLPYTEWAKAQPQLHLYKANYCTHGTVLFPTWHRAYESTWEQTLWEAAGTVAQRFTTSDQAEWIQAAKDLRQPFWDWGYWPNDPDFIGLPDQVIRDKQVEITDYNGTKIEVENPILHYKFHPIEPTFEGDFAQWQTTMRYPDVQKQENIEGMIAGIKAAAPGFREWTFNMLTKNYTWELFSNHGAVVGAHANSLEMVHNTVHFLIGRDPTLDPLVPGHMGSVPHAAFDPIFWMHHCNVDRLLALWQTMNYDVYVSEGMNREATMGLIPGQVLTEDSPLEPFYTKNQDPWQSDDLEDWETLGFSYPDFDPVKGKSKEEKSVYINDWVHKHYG

Compound | Inhibitory Mechanism (mushroom tyrosinase) | Vmax (mushroom tyrosinase) [mM/min] | T5 (temperature at 5% weight loss) [1] [°C] | T10 (temperature at 10% weight loss) [1] [°C] | solubility in toluene [2]
C(=N\Nc1nc(C23CC4CC(CC(C4)C2)C3)cs1)/c1ccc(-n2c3ccccc3c3ccccc32)cc1 [K1, (E)-2-(2-(4-(9H-carbazol-9-yl)benzylidene)hydrazinyl)-4-(1-adamantyl)thiazole] | Mixed | 0.2608 | 222 | 279 | –
O=[N+]([O-])c1ccc(-c2csc(N/N=C/c3ccc(-n4c5ccccc5c5ccccc54)cc3)n2)cc1 [K3, (E)-2-(2-(4-(9H-carbazol-9-yl)benzylidene)hydrazinyl)-4-(4-nitrophenyl)thiazole] | Mixed | 0.4718 | 244 | 271 | did not dissolve
N#Cc1ccc(-c2csc(N/N=C/c3ccc(-n4c5ccccc5c5ccccc54)cc3)n2)cc1 [K2, (E)-4-(2-(2-(4-(9H-carbazol-9-yl)benzylidene)hydrazinyl)thiazol-4-yl)benzonitrile] | Mixed | 0.4078 | 231 | 252 | –
